Results taken from US20250025439A1, “DERIVATIVES OF NIFUROXAZIDE FOR USE IN THE TREATMENT OF MITOCHONDRIAL DISORDERS AND NEURODEGENERATIVE DISEASES” (priority 2021, published 2025).

Assays:
[1] = target: STAT3 (Homo sapiens, UniProt P40763); conditions: cited from earlier work
[2] = test system: Mic60 and Miro1; experiment: Proximity ligation assay Mic60/Miro1; type: cell-based, human; conditions: patient fibroblasts, NFX 5 μM
Description: Fibroblasts were seeded in 16-well Lab-Tek chambers slides (Nunc). For mitochondrial staining, cells were incubated in a 100 nM solution of MitoTracker Red CMXRos (Invitrogen) for 15 min. Cells were fixed with PFA 4% for 20 min at 37° C. and permeabilised with 2% Triton X-100 for 10 min. Then coverslips were saturated with 5% BSA for 45 min at RT. All antibodies were diluted with PBS-BSA 5%. Fibroblasts were incubated in the presence of convenient couple of primary antibodies for 1 h at RT. After PBS washes, incubation with appropriate PLA probe (PLA probe anti rabbit MINUS, PLA probe anti mouse PLUS), hybridization, ligation and amplification were done using the DuoLink In Situ Detection Reagents Green (Olink Biosciences) following manufacturer's instructions. Finally, the samples were mounted on glass slides using Prolong Gold Antifade Reagent (Molecular Probes). Images were captured with a ZEISS LSM 880 confocal laser-scanning microscope and analyzed using Huygens Essential Software™ (Scientific Volume Imaging). Data are represented as mean±SEM. Negative control experiments (with one antibody omitted) were performed in parallel and checked to result in the absence of PLA signal (FIG. 1). […]

[3] = test system: patient fibroblasts; experiment: Electron microscopy of mitochondrial morphology in fibroblasts; type: cell-based, human; conditions: 72 h after treatment
Description: Cells were seeded on 24 wells/plate, fixed with 1.6% glutaraldehyde in 0.1 M cacodylate buffer (pH 7.4) for 2 hours, rinsed and postfixed in 1% osmium tetroxide and 1% potassium ferrocyanide in 0.1 M cacodylate buffer before to processed for ultrastructure as previously described (Bannwarth et al., Brain, 2014, 137, 2329-2345). The protocol for contrasting sections was slightly modified, using a 5% Lanthanide salt solution (a mixture of Gadolinium acetate and Samarium acetate) for 7 minutes instead of uranium acetate. The cells were examined under a JEOL 1400 transmission electron microscope. The ultrastructure of mitochondria was classified in three categories. Normal: the mitochondria have numerous, parallel and well organized cristae. Intermediary: the mitochondria have less cristae, they show few round or swollen cristae or have a mild disorganisation. Abnormal: the mitochondria have swollen, disorganized or no cristae. More than 100 mitochondria were classified per condition. Nifuroxazide (46494-100MG Sigma) was resuspended in DMSO at 50 mM and stocked at −20° C. For each treatment, the Nifuroxazide was diluted in complete medium (Dulbecco's Modified Eagle Medium supplemented with 10% FBS, penicillin (100 U/mL) and streptomycin (0.1 mg/mL)) at the desired concentration. […] 72 h hours after treatment, the cells were analysed.

[4] = test system: STAT3; experiment: Western blot of STAT3 expression after treatment; type: cell-based, human; conditions: patient and control fibroblasts, NFX 1 or 5 μM, 72 h
Description: The concentration of proteins was determined using the Pierce BCA assay kit (Thermo Fisher Scientific). 20 μg of total protein extracts were separated on acrylamide-SDS gels and transferred to PVDF membranes (Millipore). Signals were detected using a chemoluminescence system (Immobilon Western HRP Chemilumiscent substrates, Millipore). ImageJ was used to quantify protein signals. Nifuroxazide (46494-100MG Sigma) was resuspended in DMSO at 50 mM and stocked at −20° C. For each treatment, the Nifuroxazide was diluted in complete medium (Dulbecco's Modified Eagle Medium supplemented with 10% FBS, penicillin (100 U/mL) and streptomycin (0.1 mg/mL)) at the desired concentration. The cell medium was discarded and replaced by the medium with Nifuroxazide. 72 h hours after treatment, the cells were analysed.

[5] = target: T1, Unconventional myosin-IXb (MYO9B) (Homo sapiens, UniProt Q13459); experiment: Affinity chromatography with NFX-beads and mass spectrometry; type: binding; conditions: spectral counts, NFX coupled beads vs beads alone, human fibroblast extracts
T1 construct: Protein extracts from human fibroblasts were incubated with magnetic beads; endogenous in cells; host or cells: human fibroblast lysate
T1 sequence (Q13459 whole entry): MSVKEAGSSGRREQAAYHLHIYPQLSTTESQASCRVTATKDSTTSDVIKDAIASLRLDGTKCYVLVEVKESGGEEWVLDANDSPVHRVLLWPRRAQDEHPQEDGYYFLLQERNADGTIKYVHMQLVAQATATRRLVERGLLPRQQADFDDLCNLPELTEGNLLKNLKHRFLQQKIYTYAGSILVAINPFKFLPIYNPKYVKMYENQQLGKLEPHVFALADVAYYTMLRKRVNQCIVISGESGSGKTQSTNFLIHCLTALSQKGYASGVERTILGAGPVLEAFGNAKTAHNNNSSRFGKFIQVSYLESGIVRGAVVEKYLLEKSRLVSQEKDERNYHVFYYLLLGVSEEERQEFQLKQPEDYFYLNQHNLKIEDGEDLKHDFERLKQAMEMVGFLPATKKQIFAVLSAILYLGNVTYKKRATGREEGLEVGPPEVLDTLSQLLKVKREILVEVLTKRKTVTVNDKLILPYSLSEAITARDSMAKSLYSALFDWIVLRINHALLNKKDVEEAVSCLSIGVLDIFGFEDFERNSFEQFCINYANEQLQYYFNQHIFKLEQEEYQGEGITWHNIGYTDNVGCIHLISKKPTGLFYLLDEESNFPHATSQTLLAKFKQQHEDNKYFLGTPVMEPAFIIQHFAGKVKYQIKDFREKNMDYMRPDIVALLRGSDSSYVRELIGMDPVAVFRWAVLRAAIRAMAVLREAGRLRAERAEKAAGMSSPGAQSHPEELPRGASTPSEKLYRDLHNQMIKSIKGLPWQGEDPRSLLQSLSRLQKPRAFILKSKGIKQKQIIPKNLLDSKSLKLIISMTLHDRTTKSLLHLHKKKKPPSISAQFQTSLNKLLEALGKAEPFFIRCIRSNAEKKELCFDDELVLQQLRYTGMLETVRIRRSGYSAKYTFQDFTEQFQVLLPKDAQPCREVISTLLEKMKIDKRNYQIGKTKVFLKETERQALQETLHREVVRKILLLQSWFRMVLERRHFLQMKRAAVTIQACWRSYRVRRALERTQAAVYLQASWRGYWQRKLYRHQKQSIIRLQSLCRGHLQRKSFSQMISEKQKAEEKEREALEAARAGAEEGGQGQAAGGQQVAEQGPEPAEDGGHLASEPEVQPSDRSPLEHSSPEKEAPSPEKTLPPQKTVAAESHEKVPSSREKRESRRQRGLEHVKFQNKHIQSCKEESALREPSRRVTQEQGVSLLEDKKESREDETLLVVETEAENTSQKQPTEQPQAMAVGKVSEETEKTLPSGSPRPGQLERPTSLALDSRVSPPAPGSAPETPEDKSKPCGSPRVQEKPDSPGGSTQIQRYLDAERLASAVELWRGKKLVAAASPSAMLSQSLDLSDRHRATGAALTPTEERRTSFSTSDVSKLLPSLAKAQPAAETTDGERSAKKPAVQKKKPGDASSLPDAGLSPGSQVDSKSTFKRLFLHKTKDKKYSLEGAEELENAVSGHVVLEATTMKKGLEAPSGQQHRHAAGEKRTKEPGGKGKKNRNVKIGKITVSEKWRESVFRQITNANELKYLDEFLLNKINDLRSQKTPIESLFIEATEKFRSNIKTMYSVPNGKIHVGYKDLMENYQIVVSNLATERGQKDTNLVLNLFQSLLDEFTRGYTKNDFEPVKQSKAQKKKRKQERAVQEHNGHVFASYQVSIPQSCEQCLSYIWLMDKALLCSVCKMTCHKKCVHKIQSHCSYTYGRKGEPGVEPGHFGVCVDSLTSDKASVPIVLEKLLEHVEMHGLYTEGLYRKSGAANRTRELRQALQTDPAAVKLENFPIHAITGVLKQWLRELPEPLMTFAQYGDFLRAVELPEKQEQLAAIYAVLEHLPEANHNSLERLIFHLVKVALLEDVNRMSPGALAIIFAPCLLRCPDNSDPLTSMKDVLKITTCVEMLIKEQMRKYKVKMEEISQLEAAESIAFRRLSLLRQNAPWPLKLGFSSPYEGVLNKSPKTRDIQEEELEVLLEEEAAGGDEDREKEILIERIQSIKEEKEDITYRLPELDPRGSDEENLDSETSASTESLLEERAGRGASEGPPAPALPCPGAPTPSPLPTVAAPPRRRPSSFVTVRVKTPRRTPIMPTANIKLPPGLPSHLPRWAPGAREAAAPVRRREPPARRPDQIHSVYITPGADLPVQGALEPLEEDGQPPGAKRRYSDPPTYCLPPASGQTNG
Description: Fibroblasts were trypsinized and washed with PBS 1× then incubated in lysis buffer on ice during 20 minutes (Lysis buffer: Tris-HCl pH 7.5 50 mM, EDTA 2 mM, Triton X-100 0.1% supplemented with anti-protease and anti-phosphatase (Complete-Mini™—Roche). After centrifugation 15 minutes, 13 000 rpm at 4° C., supernatant was conserved and the protein concentration was determined using the Pierce BCA assay kit (Thermo Fisher Scientific).
10 μL of magnetic beads and NFX-beads were washed three times in Bead buffer before to be resuspended 100 μL of Bead buffer (Bead buffer: Tris-HCl pH 7.5 50 mM, NaCl 150 mM, Triton X-100 0.1%, supplemented with anti-protease and anti-phosphatase (Complete-Mini™—Roche)) thanks to a magnetic rack (DynaMag-2 Ref 12321D Life Technologies). 800 μg of proteins were mixed with 100 μL of diluted beads and the final volume was set to 800 μL with Bead buffer. The proteins and the beads were incubated 30 minutes with rotation in a cold room. Using a magnetic rack, the beads were separated from the protein extract and washed three time with Bead buffer before to be resuspended in 75 μL of Laemmli2X. Laemmli with beads was put 5 minutes at 95° C. to eluate the proteins and the beads were discarded using a magnetic rack. 35 μL of the eluted proteins were subjected to SDS-PAGE and silver coloration (ProteoSilver™ Silver Stain Kit—Sigma Aldrich). Bands of interest were extracted from the gel and subjected to mass spectrometry.
Mass spectrometric identification and quantification of the pulled down proteins were performed as previously described (Shrivastava et al., EMBO, 2019, 38:e99871). The raw data were cleaned using the following pathway. First, only the proteins found to interact with the NFX coupled beads in the three replicates were kept for further analysis. […] The final proteins were then classified based on the fold chance and the p-value.
Identification of the NFX intracellular targets is a crucial step in understanding its mechanisms of action and to be able to improve its efficiency on a rational basis. To purify NFX-binding proteins, affinity chromatography purification was performed using magnetic beads. Protein extracts from human fibroblasts were incubated with magnetic beads alone or to which NFX has been covalently coupled (Scheme 1). Eluted fractions were subjected to SDS-PAGE electrophoresis and silver staining (FIG. 9A). The pattern was clearly different between eluted proteins from NFX-beads compared to those eluted form beads alone with 13 bands either appeared or were of a higher intensity with the NFX-beads (FIG. 9B). Excised bands were subjected to proteolytic digestion and mass spectrometry.

Sequence of STAT3 (Homo sapiens, UniProt P40763) (P40763 whole entry, species assumed): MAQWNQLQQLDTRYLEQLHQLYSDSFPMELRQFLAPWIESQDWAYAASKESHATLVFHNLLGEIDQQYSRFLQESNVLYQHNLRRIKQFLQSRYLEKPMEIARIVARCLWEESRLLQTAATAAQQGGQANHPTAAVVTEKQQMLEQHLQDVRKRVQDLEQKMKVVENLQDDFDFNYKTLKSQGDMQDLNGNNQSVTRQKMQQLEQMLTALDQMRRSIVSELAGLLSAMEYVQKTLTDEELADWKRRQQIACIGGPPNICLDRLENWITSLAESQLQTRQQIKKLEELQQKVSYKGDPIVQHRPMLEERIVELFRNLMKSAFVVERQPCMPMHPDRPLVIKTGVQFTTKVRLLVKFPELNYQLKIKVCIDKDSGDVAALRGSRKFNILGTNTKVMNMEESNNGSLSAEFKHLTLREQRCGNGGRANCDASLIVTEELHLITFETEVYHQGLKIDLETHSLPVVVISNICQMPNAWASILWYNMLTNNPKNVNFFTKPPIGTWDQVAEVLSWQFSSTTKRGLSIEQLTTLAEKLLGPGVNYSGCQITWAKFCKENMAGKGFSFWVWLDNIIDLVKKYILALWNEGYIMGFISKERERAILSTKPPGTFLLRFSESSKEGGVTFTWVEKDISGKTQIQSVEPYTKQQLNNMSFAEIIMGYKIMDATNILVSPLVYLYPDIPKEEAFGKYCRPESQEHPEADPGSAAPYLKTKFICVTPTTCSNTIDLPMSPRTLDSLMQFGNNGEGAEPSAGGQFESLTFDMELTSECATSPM

O=C(N/N=C/c1ccc([N+](=O)[O-])o1)c1ccc(O)cc1 [NFX, (E)-4-hydroxy-N′-((5-nitrofuran-2-yl)methylene)benzohydrazide]
inhibition of STAT3 tyrosine phosphorylation [1]: potent inhibitor
number of PLA spots Mic60/Miro1 [2]: significant increase
mitochondrial morphology and cristae shape (EM) [3]: improved
STAT3 protein level [4]: dose-dependent decrease
pSTAT3Y705 protein level [4]: dose-dependent decrease
Fold change [5]: 34.52
